Source: paper doi:10.1101/350942v2 (biorxiv, 2018)

Target: Tv2483 (Treponema vincentii, UniProt S3MDF0, R115A)
Assay: biochemical

Question: Which Kd does the source give for `N=C(N)NCCC[C@H](N)C(=O)O` [L-arginine] here?
Answer: 6.3 µM
